Data on three molecules can be found in patent US10927136B2, “Phosphorus prodrugs of pyrazolo-substituted pyrimidine sGC stimulators” (Cyclerion Therapeutics, Inc., priority 2016, dated 2021).

Molecules are shown by their SMILES. Converted amounts (≈) assume the structure as drawn. Where two headings read alike, the source gives them in different places.

The term EC50 denotes the midpoint of the concentration-response curve. A word on the solubility: it is how much of the substance goes into solution per volume.

Data set [1] has as its target T1, soluble guanylate cyclase (sGC) (Homo sapiens, UniProt Q02108+Q02153).
T1 construct: endogenously expressing soluble guanylate cyclase (sGC); endogenous in cells; host or cells: HEK293
T1 sequence (Q02153 1-619): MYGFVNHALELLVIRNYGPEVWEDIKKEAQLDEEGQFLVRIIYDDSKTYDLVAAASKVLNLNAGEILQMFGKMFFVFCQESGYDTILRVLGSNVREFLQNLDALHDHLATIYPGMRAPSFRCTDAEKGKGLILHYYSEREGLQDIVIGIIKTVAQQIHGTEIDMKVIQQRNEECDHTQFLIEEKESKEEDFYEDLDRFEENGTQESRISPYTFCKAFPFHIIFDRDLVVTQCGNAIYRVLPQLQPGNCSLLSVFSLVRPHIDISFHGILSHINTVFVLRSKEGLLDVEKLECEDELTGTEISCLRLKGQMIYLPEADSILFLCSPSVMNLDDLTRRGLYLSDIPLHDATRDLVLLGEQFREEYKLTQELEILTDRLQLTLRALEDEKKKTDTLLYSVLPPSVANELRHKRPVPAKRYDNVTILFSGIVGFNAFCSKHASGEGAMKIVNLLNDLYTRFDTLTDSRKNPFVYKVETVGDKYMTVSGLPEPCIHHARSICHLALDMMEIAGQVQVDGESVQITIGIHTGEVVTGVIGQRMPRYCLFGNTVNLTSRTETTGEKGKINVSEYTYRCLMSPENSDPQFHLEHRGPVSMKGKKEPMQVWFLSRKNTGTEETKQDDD
T1 sequence (Q02108 1-690): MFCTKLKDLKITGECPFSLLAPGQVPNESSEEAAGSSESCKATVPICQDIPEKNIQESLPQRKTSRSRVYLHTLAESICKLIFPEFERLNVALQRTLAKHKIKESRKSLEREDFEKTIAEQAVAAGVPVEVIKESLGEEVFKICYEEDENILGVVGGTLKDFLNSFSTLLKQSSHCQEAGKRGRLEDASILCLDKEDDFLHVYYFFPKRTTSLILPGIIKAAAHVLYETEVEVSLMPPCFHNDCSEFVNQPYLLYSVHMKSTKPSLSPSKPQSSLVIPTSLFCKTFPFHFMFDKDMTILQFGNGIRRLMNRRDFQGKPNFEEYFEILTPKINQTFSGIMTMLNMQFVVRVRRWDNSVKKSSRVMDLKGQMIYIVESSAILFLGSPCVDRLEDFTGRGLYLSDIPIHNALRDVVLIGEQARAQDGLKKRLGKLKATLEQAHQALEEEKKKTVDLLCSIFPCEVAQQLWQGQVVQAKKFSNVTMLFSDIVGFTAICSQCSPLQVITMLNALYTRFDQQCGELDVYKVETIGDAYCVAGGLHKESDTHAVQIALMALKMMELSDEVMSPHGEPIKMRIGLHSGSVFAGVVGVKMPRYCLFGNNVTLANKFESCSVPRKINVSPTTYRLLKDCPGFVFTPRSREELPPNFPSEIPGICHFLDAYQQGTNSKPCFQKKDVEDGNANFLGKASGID
The experiment in a line: sGC-HEK-cGMP assay with LC/MS detection. Type of data set: cell-based. The note with it: for EC50: HEK293 cells, 10 μM DETA-NONOate, cGMP by LC/MS, read-out: Absolute EC50; for sGC agonism as compared to parent drug: HEK assay with LC/MS detection. The protocol:
Human embryonic kidney cells (HEK293), endogenously expressing soluble guanylate cyclase (sGC), were used to evaluate the activity of test compounds. Compounds stimulating the sGC enzyme should cause an increase in the intracellular concentration of cGMP. HEK 293 cells were seeded in Dulbecco's Modification of Eagle's Medium supplemented with fetal bovine serum (10% final) and penicillin (100 U/mL)/streptomycin (100 μg/mL) in a 50 μL volume at a density of 1.5×10^4 cells/well in a poly-D-lysine coated 384 well flat bottom plate. Cells were incubated overnight at 37° C. in a humidified chamber with 5% CO2. Medium was aspirated and cells were washed with 1×Hank's Buffered Saline Salt Solution (50 μL). Cells were then incubated for 15 minutes at 37° C. with 50 μL of a 0.5 mM 3-isobutyl-1-methylxanthine (IBMX) solution. The test article and Diethylenetriamine NONOate (DETA-NONOate) solutions (x μM concentration for test article solution and 10 μM concentration for DETA-NONOate solution; wherein x is one of the following concentrations)
were then added to the assay mixture and the resulting mixture was incubated at 37° C. for 20 minutes. After the 20 minute incubation, the assay mixture was aspirated and 10% acetic acid containing 150 ng/mL+3-cGMP (internal standard for LCMS) (50 μL) was added to the cells. The plate was incubated at 4° C. for 30 minutes in the acetic acid solution to stop the reaction and lyse the cells. The plates were then centrifuged at 1,000 g for 3 minutes at 4° C. and the supernatant transferred to a clean reaction plate for LCMS analysis.
cGMP concentrations were determined from each sample using the LCMS conditions below (Table 2) and calculated standard curve. The standard curve was prepared in 10% acetic acid with 150 ng/mL+3cGMP (isotopically labelled cGMP with a weight 3 units higher than wild type) with the following final concentrations of cGMP in ng/mL: 1, 5, 10, 50, 100, 250, 500, 1000, 2000.
Data were normalized to a high control using the following equation: 100*(Sample−Low Control)/(High Control−Low Control), where the low control is the average of 16 samples treated with 1% DMSO, and the high control is the average of 16 samples treated with 30 μM of Compound Y depicted below. Data were fit using a 4-parameter fit (log(agonist) vs. response—variable slope) using GraphPad Prism Software v.5. n=2 for all compounds. The Absolute EC50 was interpolated from the curve fit and is defined as the concentration at which a given compound elicits 50% of the high control response. Compounds failing to elicit a minimum response of 50% are reported as >30 μM. For compounds run in duplicate or n higher than 2, the result herein given is the geometric mean of the several results obtained.
sGC enzyme activity values in HEK cells, expressed as Absolute EC50 which is defined as the concentration at which a given compound elicits 50% of the high control response obtained with Compound Y, after normalization.

A short description of data set [2]: Thermodynamic solubility measurements. Type of data set: physicochemical. The conditions noted are these: aqueous buffer, pH 7, aqueous buffer, thermodynamic from solid. Here is the method: Approximately 1 mg of test compound was weighed into 1.5 mL Eppendorf tubes and 1.5 mL of aqueous buffer of a given pH was added. The samples were vortexed and placed on a shaker at 150 RPM for 2-5 days. The samples were harvested and then centrifuged at 12 K RPM for 20 minutes. The supernatant was diluted twice with Acetonitrile (ACN) and analyzed by UPLC. To dilute the samples, 200 uL of supernatant was taken and discarded. Then, 400 uL of supernatant (with 200 uL intervals) was taken and added to 400 uL of acetonitrile (with 200 uL intervals).
UPLC conditions: Mobile Phase A: 0.1% TFA in Water; Mobile Phase B: 0.1% TFA in Acetonitrile; Column: Acquity BEH C18, 1.7 um, 2.1×50 mm; Injection Volume: 2-3 uL; Autosampler Temperature: Ambient; Column Temperature: 25° C.; Run Time: 10 minutes; Flow Rate: 0.45 mlJmin; Collected Wavelengths: 220 nm, 245 nm, 254 nm, 280 nm, PDA Spectrum (190-400 nm); Wavelength Used for Analysis: 254 nm

With `O=P(O)(O)OC(CNc1nc(-c2cc(-c3ccon3)n(Cc3ccccc3F)n2)ncc1F)(C(F)(F)F)C(F)(F)F` [Compound I-1], the EC50 in data set [1] (prodrug) was found to be 13 µM. Besides, the “sGC agonism as compared to parent drug” value in data set [1] was “did not exhibit a high degree of sGC agonism”. In addition, the solubility in data set [2] fell in the range of 66 to 1000 µg/mL (≈ 107 to 1630 µM).

Turning to `O=P(O)(O)OCOC(CNc1nc(-c2cc(-c3ccon3)n(Cc3ccccc3F)n2)ncc1F)(C(F)(F)F)C(F)(F)F` [Compound I-4], the EC50 in data set [1] (prodrug) is 25 µM. Also, the “sGC agonism as compared to parent drug” value in data set [1] is “did not exhibit a high degree of sGC agonism”. The same molecule came in with a solubility in data set [2] of 71 µg/mL (≈ 110 µM).

Take `OC(CNc1nc(-c2cc(-c3ccon3)n(Cc3ccccc3F)n2)ncc1F)(C(F)(F)F)C(F)(F)F` [Intermediate 3]: the EC50 in data set [1] (Parent compound column) was determined as 0.22 µM. Also, the solubility in data set [2] was 2 to 3 µg/mL (≈ 3.74 to 5.61 µM).
